Laboratory results from patent US9340590B2 (priority 2011, dated 2016).
Like-named read-outs stand apart in the source and are kept apart here. Positions of bridges follow the written chain, without caps; N, C: chain ends. Non-standard residues stand in square brackets, D forms with d. Residues, ends and D or L forms follow the SMILES beside them. Bip = N[C@@H](Cc1ccc(-c2ccccc2)cc1)C(=O)O

How the values were obtained:
Experiment in all cases: cell-based
[1] = molecular target: hNav1.3 (Homo sapiens, UniProt Q9NY46); settings: IonWorks Quattro, read-out: IWQ Use Nav1.3
[2] = molecular target: hNav1.7 (Homo sapiens, UniProt Q15858); type: cell-based
[3] = molecular target: hNav1.5 (Homo sapiens, UniProt Q14524)
[4] = IonWorks Quattro, use-dependent block, hNav1.7, read-out: IWQ Use Nav1.7
[5] = IonWorks Quattro, use-dependent block, hNav1.5, read-out: IWQ Use Nav1.5
[6] = clamped to −110 mV, depolarized to −10 mV, 5 min after compound, n=2

Sequence of hNav1.5 (Q14524 whole entry, looked up): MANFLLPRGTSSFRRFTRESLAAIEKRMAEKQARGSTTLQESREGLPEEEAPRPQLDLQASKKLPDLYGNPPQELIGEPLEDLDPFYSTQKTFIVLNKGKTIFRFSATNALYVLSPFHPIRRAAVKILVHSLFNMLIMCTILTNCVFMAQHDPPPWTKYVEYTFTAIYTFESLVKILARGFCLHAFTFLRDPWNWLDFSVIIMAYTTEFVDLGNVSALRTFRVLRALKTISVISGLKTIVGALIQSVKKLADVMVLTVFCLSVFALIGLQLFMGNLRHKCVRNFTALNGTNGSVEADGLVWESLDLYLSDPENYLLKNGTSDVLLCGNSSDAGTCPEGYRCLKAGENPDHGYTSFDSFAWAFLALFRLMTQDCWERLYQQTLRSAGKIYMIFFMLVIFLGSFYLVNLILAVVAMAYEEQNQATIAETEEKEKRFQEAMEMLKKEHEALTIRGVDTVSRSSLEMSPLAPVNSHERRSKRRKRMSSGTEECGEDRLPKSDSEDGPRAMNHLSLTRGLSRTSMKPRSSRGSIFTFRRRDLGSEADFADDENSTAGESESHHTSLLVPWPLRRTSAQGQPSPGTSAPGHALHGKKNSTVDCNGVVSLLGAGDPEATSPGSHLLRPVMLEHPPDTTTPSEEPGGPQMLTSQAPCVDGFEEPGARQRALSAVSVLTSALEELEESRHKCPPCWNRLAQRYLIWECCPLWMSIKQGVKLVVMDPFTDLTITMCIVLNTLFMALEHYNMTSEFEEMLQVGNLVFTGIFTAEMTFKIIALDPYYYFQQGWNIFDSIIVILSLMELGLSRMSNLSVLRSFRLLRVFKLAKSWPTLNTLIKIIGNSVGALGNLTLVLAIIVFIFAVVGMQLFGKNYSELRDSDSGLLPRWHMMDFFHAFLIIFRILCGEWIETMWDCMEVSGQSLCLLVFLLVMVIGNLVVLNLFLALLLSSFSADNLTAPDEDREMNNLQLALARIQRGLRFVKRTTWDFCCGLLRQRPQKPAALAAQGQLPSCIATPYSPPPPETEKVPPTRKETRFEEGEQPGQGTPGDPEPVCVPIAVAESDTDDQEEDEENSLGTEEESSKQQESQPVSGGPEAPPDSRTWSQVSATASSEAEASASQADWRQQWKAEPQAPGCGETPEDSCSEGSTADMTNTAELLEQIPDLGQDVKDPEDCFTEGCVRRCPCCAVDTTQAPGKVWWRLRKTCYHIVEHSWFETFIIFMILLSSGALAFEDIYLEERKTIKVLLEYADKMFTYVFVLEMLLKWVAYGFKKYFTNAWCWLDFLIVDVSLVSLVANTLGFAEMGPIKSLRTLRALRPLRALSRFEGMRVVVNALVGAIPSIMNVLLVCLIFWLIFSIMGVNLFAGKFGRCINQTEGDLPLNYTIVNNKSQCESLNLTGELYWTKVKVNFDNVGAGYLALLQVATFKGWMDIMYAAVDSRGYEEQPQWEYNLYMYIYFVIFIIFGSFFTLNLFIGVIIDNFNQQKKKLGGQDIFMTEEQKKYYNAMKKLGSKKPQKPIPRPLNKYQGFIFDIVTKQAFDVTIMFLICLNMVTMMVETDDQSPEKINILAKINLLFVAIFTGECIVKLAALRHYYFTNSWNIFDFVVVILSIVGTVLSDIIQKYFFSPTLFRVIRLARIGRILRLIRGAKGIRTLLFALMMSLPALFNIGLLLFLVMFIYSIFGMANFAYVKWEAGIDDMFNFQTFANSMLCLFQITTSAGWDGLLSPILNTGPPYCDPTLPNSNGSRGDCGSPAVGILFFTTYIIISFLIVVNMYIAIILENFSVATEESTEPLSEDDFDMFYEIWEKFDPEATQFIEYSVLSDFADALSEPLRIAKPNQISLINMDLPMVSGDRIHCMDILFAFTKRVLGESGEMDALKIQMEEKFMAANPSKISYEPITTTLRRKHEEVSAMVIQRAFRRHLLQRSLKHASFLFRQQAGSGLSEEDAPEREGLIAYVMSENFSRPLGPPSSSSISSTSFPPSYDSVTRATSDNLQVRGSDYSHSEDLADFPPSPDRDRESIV
Sequence of hNav1.7 (Q15858 whole entry, looked up): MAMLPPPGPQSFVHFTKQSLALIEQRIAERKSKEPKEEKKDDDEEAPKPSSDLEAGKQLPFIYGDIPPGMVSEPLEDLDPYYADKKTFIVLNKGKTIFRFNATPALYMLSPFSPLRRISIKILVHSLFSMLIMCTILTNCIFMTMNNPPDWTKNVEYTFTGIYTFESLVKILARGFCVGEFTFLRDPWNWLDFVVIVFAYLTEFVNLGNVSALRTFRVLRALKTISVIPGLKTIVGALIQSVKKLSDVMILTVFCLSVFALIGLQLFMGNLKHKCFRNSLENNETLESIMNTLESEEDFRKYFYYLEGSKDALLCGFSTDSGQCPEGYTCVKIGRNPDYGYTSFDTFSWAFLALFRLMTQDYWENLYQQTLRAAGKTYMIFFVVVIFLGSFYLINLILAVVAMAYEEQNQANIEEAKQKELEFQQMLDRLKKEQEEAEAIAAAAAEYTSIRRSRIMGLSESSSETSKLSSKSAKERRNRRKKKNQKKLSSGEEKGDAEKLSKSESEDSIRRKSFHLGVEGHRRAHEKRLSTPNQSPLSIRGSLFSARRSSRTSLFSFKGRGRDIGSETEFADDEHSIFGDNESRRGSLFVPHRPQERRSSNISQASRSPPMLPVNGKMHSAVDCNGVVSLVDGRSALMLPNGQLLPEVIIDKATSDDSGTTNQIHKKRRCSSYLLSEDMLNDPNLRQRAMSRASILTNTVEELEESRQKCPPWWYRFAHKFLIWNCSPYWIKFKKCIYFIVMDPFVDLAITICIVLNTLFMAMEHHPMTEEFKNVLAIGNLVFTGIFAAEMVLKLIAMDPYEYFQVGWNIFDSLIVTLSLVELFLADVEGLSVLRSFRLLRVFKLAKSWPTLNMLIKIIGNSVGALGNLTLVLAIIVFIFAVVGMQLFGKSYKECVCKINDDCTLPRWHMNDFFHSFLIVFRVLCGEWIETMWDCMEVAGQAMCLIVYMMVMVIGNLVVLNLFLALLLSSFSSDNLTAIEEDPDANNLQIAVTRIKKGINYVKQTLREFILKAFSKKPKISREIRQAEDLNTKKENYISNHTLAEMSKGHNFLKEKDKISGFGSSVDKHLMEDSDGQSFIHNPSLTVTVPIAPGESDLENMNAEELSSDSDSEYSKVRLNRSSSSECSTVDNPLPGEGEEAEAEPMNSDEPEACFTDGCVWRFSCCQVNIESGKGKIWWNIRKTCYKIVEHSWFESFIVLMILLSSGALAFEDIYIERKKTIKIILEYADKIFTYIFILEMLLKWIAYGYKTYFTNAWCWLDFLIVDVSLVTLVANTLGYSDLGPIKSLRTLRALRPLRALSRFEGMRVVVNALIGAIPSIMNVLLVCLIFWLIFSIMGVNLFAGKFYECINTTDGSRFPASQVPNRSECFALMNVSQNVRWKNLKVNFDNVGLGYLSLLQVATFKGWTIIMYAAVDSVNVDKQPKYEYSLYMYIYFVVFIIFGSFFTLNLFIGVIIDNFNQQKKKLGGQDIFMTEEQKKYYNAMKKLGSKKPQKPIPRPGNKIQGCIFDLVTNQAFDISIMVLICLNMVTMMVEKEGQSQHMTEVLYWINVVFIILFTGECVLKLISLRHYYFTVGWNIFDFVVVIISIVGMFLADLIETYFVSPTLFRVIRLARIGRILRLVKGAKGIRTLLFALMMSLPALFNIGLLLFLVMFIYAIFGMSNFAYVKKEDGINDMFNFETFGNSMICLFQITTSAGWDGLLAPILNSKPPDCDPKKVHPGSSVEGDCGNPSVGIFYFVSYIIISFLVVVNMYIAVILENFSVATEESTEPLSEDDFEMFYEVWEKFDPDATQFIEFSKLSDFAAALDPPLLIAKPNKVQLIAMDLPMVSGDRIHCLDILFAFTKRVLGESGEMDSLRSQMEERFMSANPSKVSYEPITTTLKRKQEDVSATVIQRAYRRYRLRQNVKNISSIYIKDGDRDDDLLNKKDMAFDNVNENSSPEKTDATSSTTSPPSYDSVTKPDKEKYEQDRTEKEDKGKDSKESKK

`CC[C@H](C)[C@@H]1NC(=O)[C@@H]2CSSC[C@@H]3NC(=O)[C@H](C(C)C)NC(=O)[C@H](CC(C)C)NC(=O)[C@H](CC(N)=O)NC(=O)[C@@H]4CCCN4C(=O)[C@H](CCCNC(=N)N)NC(=O)[C@H](CSSC[C@H](NC(=O)[C@@H](N)CC(=O)O)C(=O)N[C@@H](CC(C)C)C(=O)NCC(=O)N[C@@H](C)C(=O)N[C@@H](CC[S+](C)[O-])C(=O)N[C@@H](CCCNC(=N)N)C(=O)N[C@@H](CCCCN)C(=O)N2)NC(=O)[C@H](CSSC[C@@H](C(=O)N[C@@H](CCCCN)C(=O)N[C@@H](Cc2ccc(O)cc2)C(=O)N[C@H](C(=O)N[C@@H](Cc2ccccc2)C(N)=O)C(C)C)NC(=O)[C@H](Cc2c[nH]c4ccccc24)NC(=O)[C@H](CCCCN)NC(=O)[C@H](Cc2c[nH]cn2)NC(=O)[C@H]([C@@H](C)O)NC(=O)[C@H](CCCNC(=N)N)NC(=O)[C@H](CO)NC3=O)NC(=O)[C@H](CCCCN)NC(=O)[C@H](CC(=O)O)NC(=O)[C@H](CC(N)=O)NC(=O)[C@H](CC(=O)O)NC(=O)[C@@H]2CCCN2C1=O` (single isomer, unassigned) [compound 791] gave an IC50 ([1]; use-dependent block, hNav1.3) greater than 5 µM, an IC50 [2, 4] greater than 5 µM and an IC50 [3, 5] of 39.5 µM.

For `CC[C@H](C)[C@@H]1NC(=O)[C@@H]2CSSC[C@@H]3NC(=O)[C@H](C(C)C)NC(=O)[C@H](CC(C)C)NC(=O)[C@H](CC(N)=O)NC(=O)[C@@H]4CCCN4C(=O)[C@H](CCCNC(=N)N)NC(=O)[C@H](CSSC[C@H](NC(=O)[C@@H](N)CC(=O)O)C(=O)N[C@@H](CC(C)C)C(=O)NCC(=O)N[C@@H](C)C(=O)N[C@@H](CC[S+](C)[O-])C(=O)N[C@@H](CCCNC(=N)N)C(=O)N[C@@H](CCCCN)C(=O)N2)NC(=O)[C@H](CSSC[C@@H](C(=O)N[C@@H](CCCCN)C(=O)N[C@@H](Cc2ccc(O)cc2)C(=O)N[C@H](C(=O)N[C@@H](Cc2ccccc2)C(N)=O)C(C)C)NC(=O)[C@H](Cc2c[nH]c4ccccc24)NC(=O)[C@H](CCCCN)NC(=O)[C@H](Cc2c[nH]cn2)NC(=O)[C@H]([C@@H](C)O)NC(=O)[C@H](CCCNC(=N)N)NC(=O)[C@H](CO)NC3=O)NC(=O)[C@H](CCCCN)NC(=O)[C@H](CC(=O)O)NC(=O)[C@H](CC(N)=O)NC(=O)[C@H](CC(=O)O)NC(=O)[C@@H]2CCCN2C1=O` (single isomer, unassigned) [compound 792], the IC50 ([1]; use-dependent block, hNav1.3) was greater than 5 µM, the IC50 [2, 4] was greater than 5 µM and the IC50 [3, 5] was 49.8 µM.

`CC[C@H](C)[C@@H]1NC(=O)[C@@H]2CSSC[C@@H]3NC(=O)[C@H](C(C)C)NC(=O)[C@H](CC(C)C)NC(=O)[C@H](CC(N)=O)NC(=O)[C@@H]4CCCN4C(=O)[C@H](CCCNC(=N)N)NC(=O)[C@H](CSSC[C@H](NC(=O)[C@@H](N)CC(=O)O)C(=O)N[C@@H](CC(C)C)C(=O)NCC(=O)N[C@@H](Cc4ccccc4)C(=O)N[C@@H](CC[Se]C)C(=O)N[C@@H](CCCNC(=N)N)C(=O)N[C@@H](CCCCN)C(=O)N2)NC(=O)[C@H](CSSC[C@@H](C(=O)N[C@@H](CCCCN)C(=O)N[C@@H](Cc2ccc(O)cc2)C(=O)N[C@H](C(=O)N[C@@H](Cc2ccccc2)C(N)=O)C(C)C)NC(=O)[C@H](Cc2c[nH]c4ccccc24)NC(=O)[C@H](CCCCN)NC(=O)[C@H](Cc2c[nH]cn2)NC(=O)[C@H]([C@@H](C)O)NC(=O)[C@H](CCCNC(=N)N)NC(=O)[C@H](CO)NC3=O)NC(=O)[C@H](CCCCN)NC(=O)[C@H](CC(=O)O)NC(=O)[C@H](CC(N)=O)NC(=O)[C@H](CC(=O)O)NC(=O)[C@@H]2CCCN2C1=O` [SEQ ID NO: 3] gave an IC50 [1, 6] of 0.1 µM, an IC50 ([2]; IonWorks Quattro, clamped to −110 mV, depolarized to −10 mV, 5 min after compound, n=2, read-out: IWQ Use Nav1.7) of 0.1 µM and an IC50 ([3]; IonWorks Quattro, clamped to −110 mV, depolarized to −10 mV, 5 min after compound, n=2, read-out: IWQ Use Nav1.5) of 13.9 µM.

For `CC[C@H](C)[C@@H]1NC(=O)[C@@H]2CSSC[C@@H]3NC(=O)[C@H](C(C)C)NC(=O)[C@H](CC(C)C)NC(=O)[C@H](CC(N)=O)NC(=O)[C@@H]4CCCN4C(=O)[C@H](CCCNC(=N)N)NC(=O)[C@H](CSSC[C@H](NC(=O)[C@H](CC(=O)O)NC(=O)[C@@H](N)CCC(=O)O)C(=O)N[C@@H](CC(C)C)C(=O)NCC(=O)N[C@@H](Cc4ccccc4)C(=O)N[C@@H](CCSC)C(=O)N[C@@H](CCCNC(=N)N)C(=O)N[C@@H](CCCCN)C(=O)N2)NC(=O)[C@H](CSSC[C@@H](C(=O)N[C@@H](CCCCN)C(=O)N[C@@H](Cc2ccc(O)cc2)C(=O)N[C@H](C(=O)N[C@@H](Cc2ccccc2)C(N)=O)C(C)C)NC(=O)[C@H](Cc2c[nH]c4ccccc24)NC(=O)[C@H](CCCCN)NC(=O)[C@H](Cc2cnc[nH]2)NC(=O)[C@H]([C@@H](C)O)NC(=O)[C@H](CCCNC(=N)N)NC(=O)[C@H](CO)NC3=O)NC(=O)[C@H](CCCCN)NC(=O)[C@H](CC(=O)O)NC(=O)[C@H](CC(N)=O)NC(=O)[C@H](CC(=O)O)NC(=O)[C@@H]2CCCN2C1=O` [SEQ ID NO: 17], the IC50 [1, 6] was 0.19 µM, the IC50 [2] was 0.26 µM and the IC50 ([3]; IWQ Use Nav1.5) was 12.8 µM.

`CC[C@H](C)[C@@H]1NC(=O)[C@@H]2CSSC[C@@H]3NC(=O)[C@H](C(C)C)NC(=O)[C@H](CC(C)C)NC(=O)[C@H](CC(N)=O)NC(=O)[C@@H]4CCCN4C(=O)[C@H](CCCNC(=N)N)NC(=O)[C@H](CSSC[C@H](NC(=O)[C@@H](N)CC(=O)O)C(=O)N[C@@H](CC(C)C)C(=O)NCC(=O)N[C@@H](Cc4ccccc4)C(=O)N[C@@H](CCSC)C(=O)N[C@@H](CCCNC(=N)N)C(=O)N[C@@H](CCCCN)C(=O)N2)NC(=O)[C@H](CSSC[C@@H](C(=O)N[C@@H](CCCCN)C(=O)N[C@@H](Cc2ccc(O)cc2)C(=O)N[C@H](C(=O)N[C@@H](Cc2ccccc2)C(N)=O)C(C)C)NC(=O)[C@H](Cc2c[nH]c4ccccc24)NC(=O)[C@H](CC(=O)O)NC(=O)[C@H](Cc2c[nH]cn2)NC(=O)[C@H]([C@@H](C)O)NC(=O)[C@H](CCCNC(=N)N)NC(=O)[C@H](CO)NC3=O)NC(=O)[C@H](CCCCN)NC(=O)[C@H](CC(=O)O)NC(=O)[C@H](CC(N)=O)NC(=O)[C@H](CC(=O)O)NC(=O)[C@@H]2CCCN2C1=O` [SEQ ID NO: 750, [Asp28]GpTx-1] (H-DCLGFMRKCIPDNDKCCRPNLVCSRTHDWCKYVF-NH2; disulfide 2-17, 9-23, 16-30) gave an IC50 [2, 4] of 0.73 µM and an IC50 ([3]; read-out: IWQ Use Nav1.5) of 37.9 µM.

`CC[C@H](C)[C@@H]1NC(=O)[C@@H]2CSSC[C@@H]3NC(=O)[C@H](C(C)C)NC(=O)[C@H](CC(C)C)NC(=O)[C@H](CC(N)=O)NC(=O)[C@@H]4CCCN4C(=O)[C@H](CCCNC(=N)N)NC(=O)[C@H](CSSC[C@H](NC(=O)[C@@H](N)CC(=O)O)C(=O)N[C@@H](CC(C)C)C(=O)NCC(=O)N[C@@H](Cc4ccccc4)C(=O)N[C@@H](CCSC)C(=O)N[C@@H](CCCNC(=N)N)C(=O)N[C@@H](CCCCN)C(=O)N2)NC(=O)[C@H](CSSC[C@@H](C(=O)N[C@@H](CCCCN)C(=O)N[C@@H](Cc2ccc(O)cc2)C(=O)N[C@H](C(=O)N[C@@H](Cc2ccccc2)C(N)=O)C(C)C)NC(=O)[C@H](Cc2ccccc2)NC(=O)[C@H](CCCCN)NC(=O)[C@H](Cc2c[nH]cn2)NC(=O)[C@H]([C@@H](C)O)NC(=O)[C@H](CCCNC(=N)N)NC(=O)[C@H](CO)NC3=O)NC(=O)[C@H](CCCCN)NC(=O)[C@H](CC(=O)O)NC(=O)[C@H](CC(N)=O)NC(=O)[C@H](CC(=O)O)NC(=O)[C@@H]2CCCN2C1=O` [compound 112] (H-DCLGFMRKCIPDNDKCCRPNLVCSRTHKFCKYVF-NH2; disulfide 2-17, 9-23, 16-30) showed an IC50 ([2]; Table 24, IonWorks Quattro, use, […], read-out: IWQ Use Nav1.7) of 2.18 µM and an IC50 ([3]; Table 24, IonWorks Quattro, use, […], read-out: IWQ Use Nav1.5) of 6.21 µM.

In the case of `CSCC[C@@H]1NC(=O)[C@H](Cc2ccccc2)NC(=O)CNC(=O)[C@H](CC(C)C)NC(=O)[C@@H](NC(=O)[C@@H](N)CC(=O)O)CSSC[C@@H]2NC(=O)[C@@H]3CSSC[C@@H](C(=O)N[C@@H](CCCCN)C(=O)N[C@@H](Cc4ccc(O)cc4)C(=O)N[C@H](C(=O)N[C@@H](Cc4ccccc4)C(N)=O)C(C)C)NC(=O)[C@H](Cc4c[nH]c5ccccc45)NC(=O)[C@H](CCCCN)NC(=O)[C@H](Cc4c[nH]cn4)NC(=O)[C@H]([C@@H](C)O)NC(=O)[C@H](CCCNC(=N)N)NC(=O)[C@H](CO)NC(=O)[C@H](CSSC[C@H](NC(=O)[C@H](CCCCN)NC(=O)[C@H](CCCNC(=N)N)NC1=O)C(=O)N[C@@H](CCSC)C(=O)N1CCC[C@H]1C(=O)N[C@@H](CC(=O)O)C(=O)N[C@@H](CC(N)=O)C(=O)N[C@@H](CC(=O)O)C(=O)N[C@@H](CCCCN)C(=O)N3)NC(=O)[C@H](C(C)C)NC(=O)[C@H](CC(C)C)NC(=O)[C@H](CC(N)=O)NC(=O)[C@@H]1CCCN1C(=O)[C@H](CCCNC(=N)N)NC2=O` [compound 307] (H-DCLGFMRKCMPDNDKCCRPNLVCSRTHKWCKYVF-NH2; disulfide 2-17, 9-23, 16-30), the IC50 ([2]; read-out: IWQ Use Nav1.7) is reported as 0.09 µM and the IC50 ([3]; IonWorks Quattro, Use, read-out: IWQ Use Nav1.5) is reported as 3.38 µM.

For `CC[C@H](C)[C@@H]1NC(=O)[C@@H]2CSSC[C@@H]3NC(=O)[C@H](C(C)C)NC(=O)[C@H](CC(C)C)NC(=O)[C@H](CC(N)=O)NC(=O)[C@@H]4CCCN4C(=O)[C@H](CCCNC(=N)N)NC(=O)[C@H](CSSC[C@H](NC(=O)[C@@H](N)CC(=O)O)C(=O)N[C@@H](CC(C)C)C(=O)NCC(=O)N[C@@H](Cc4ccccc4)C(=O)N[C@@H](CCSC)C(=O)N[C@@H](CCCNC(=N)N)C(=O)N[C@@H](CCCCN)C(=O)N2)NC(=O)[C@H](CSSC[C@@H](C(=O)N[C@@H](CCCCN)C(=O)N[C@@H](Cc2ccc(-c4ccccc4)cc2)C(=O)N[C@H](C(=O)N[C@@H](Cc2ccccc2)C(N)=O)C(C)C)NC(=O)[C@H](Cc2c[nH]c4ccccc24)NC(=O)[C@H](CCCCN)NC(=O)[C@H](Cc2c[nH]cn2)NC(=O)[C@H]([C@@H](C)O)NC(=O)[C@H](CCCNC(=N)N)NC(=O)[C@H](CO)NC3=O)NC(=O)[C@H](CCCCN)NC(=O)[C@H](CC(=O)O)NC(=O)[C@H](CC(N)=O)NC(=O)[C@H](CC(=O)O)NC(=O)[C@@H]2CCCN2C1=O` [compound 376] (H-DCLGFMRKCIPDNDKCCRPNLVCSRTHKWCK[Bip]VF-NH2; disulfide 2-17, 9-23, 16-30), the IC50 ([2]; Table 25, IonWorks Quattro, use, […], read-out: IWQ Use Nav1.7) was 0.03 µM and the IC50 ([3]; Table 25, IonWorks Quattro, use, […], read-out: IWQ Use Nav1.5) was 2.9 µM.
